# Measurements taken from patent US11872202B2, “Pleuromutilin cinnamic acid ester compounds with activities against antibiotic-resistant infections” (SHAANXI UNIVERSITY OF SCIENCE AND TECHNOLOGY, priority 2021, dated 2024).
# Like-named read-outs stand apart in the source and are kept apart here.
# Columns and labels:
# Experiment in all cases: MIC, micro-broth dilution method
# Assay type in all cases: cell-based
# [1] = system: Methicillin-sensitive Staphylococcus epidermidis ATCC12228
# Method: (§1) The minimum inhibitory concentration (MIC) of pleuromutilin cinnamate easters and their starting materials was tested by a micro-broth dilution method, with retamoline, vornimulin and tiamulin as positive controls.
# (§2) The experimental strains included Gram-positive bacteria: Methicillin-sensitive Staphylococcus epidermidis ATCC12228, Staphylococcus aureus ATCC29213 and ATCC25923, and Methicillin-resistant Staphylococcus aureus ATCC33591; Gram-negative bacteria: Acinetobacter baumannii ATCC19606 and E. coli Bacillus ATCC25922 (the strains used were from the American type culture collection (ATCC)).
# [2] = system: Staphylococcus aureus ATCC29213
# Method: as §1, §2
# [3] = system: Staphylococcus aureus ATCC25923
# Method: as §1, §2
# [4] = system: Methicillin-resistant Staphylococcus aureus ATCC33591
# Method: as §1, §2
# [5] = system: Escherichia coli ATCC25922
# Method: as §1, §2
# [6] = system: Acinetobacter baumannii ATCC19606
# Method: as §1, §2
# [7] = Methicillin-sensitive Staphylococcus epidermidis ATCC12228, 37° C., 20-22 h, read-out: Minimum inhibitory concentration
# [8] = Staphylococcus aureus ATCC29213, 37° C., 20-22 h, read-out: Minimum inhibitory concentration
# [9] = Staphylococcus aureus ATCC25923, 37° C., 20-22 h, read-out: Minimum inhibitory concentration
# [10] = Methicillin-resistant Staphylococcus aureus ATCC33591, 37° C., 20-22 h, read-out: Minimum inhibitory concentration
# [11] = Escherichia coli ATCC25922, 37° C., 20-22 h, read-out: Minimum inhibitory concentration
# [12] = Acinetobacter baumannii ATCC19606, 37° C., 20-22 h, read-out: Minimum inhibitory concentration
"MIC [1, 7] [µg/mL]","MIC [2, 8] [µg/mL]","MIC [3, 9] [µg/mL]","MIC [4, 10] [µg/mL]","MIC [5, 11] [µg/mL]","MIC [6, 12] [µg/mL]",SMILES,"inhibitory effect compared with the three tested positive controls ([1]; methicillin-sensitive Staphylococcus epidermidis, statement in words from Table 1)","inhibition compared with tiamulin ([6]; Acinetobacter baumannii, statement in words from Table 1)","MIC ([1]; Staphylococcus epidermidis, ATCC12228, read-out: Minimum inhibitory concentration) [µg/mL]","MIC ([2]; Staphylococcus aureus, ATCC29213, read-out: Minimum inhibitory concentration) [µg/mL]","MIC ([3]; Staphylococcus aureus, ATCC25923, read-out: Minimum inhibitory concentration) [µg/mL]","MIC ([4]; Staphylococcus aureus, ATCC33591, read-out: Minimum inhibitory concentration) [µg/mL]","MIC ([5]; Escherichia coli, ATCC25922, read-out: Minimum inhibitory concentration) [µg/mL]","MIC ([6]; Acinetobacter baumannii, ATCC19606, read-out: Minimum inhibitory concentration) [µg/mL]"
32,32,16,128,> 256,64,"C=C[C@]1(C)C[C@@H](OC(=O)COC(=O)/C=C/c2cccc(OCc3ccccc3)c2)[C@]2(C)[C@H](C)CC[C@]3(CCC(=O)[C@H]32)[C@@H](C)[C@@H]1O [Compound 13, (E)-2-(((3aR,4R,5R,8S,9R,12R)-8-hydroxy-4,7,9,12-tetramethyl-3-oxo-7-vinyldecahydro-4,9a-propanocyclopenta[8]annulen-5-yl)oxy)-2-oxoethyl 3-(3-(benzyloxy)phenyl)acrylate]",–,as much as tiamulin,–,–,–,–,–,–
16,16,4,32,128,> 256,"C=C[C@]1(C)C[C@@H](OC(=O)COC(=O)/C=C/c2ccccc2)[C@]2(C)[C@H](C)CC[C@]3(CCC(=O)[C@H]32)[C@@H](C)[C@@H]1O [Compound 3, 2-(((3aR,4R,5R,8S,9R,12R)-8-hydroxy-4,7,9,12-tetramethyl-3-oxo-7-vinyldecahydro-4,9a-propanocyclopenta[8]annulen-5-yl)oxy)-2-oxoethyl cinnamate]",–,–,–,–,–,–,–,–
32,32,16,32,128,128,"C=C[C@]1(C)C[C@@H](OC(=O)COC(=O)/C=C/c2ccc(F)cc2)[C@]2(C)[C@H](C)CC[C@]3(CCC(=O)[C@H]32)[C@@H](C)[C@@H]1O [Compound 11, (E)-2-(((3aR,4R,5R,8S,9R,12R)-8-hydroxy-4,7,9,12-tetramethyl-3-oxo-7-vinyldecahydro-4,9a-propanocyclopenta[8]annulen-5-yl)oxy)-2-oxoethyl 3-(4-fluorophenyl)acrylate]",–,–,–,–,–,–,–,–
32,32,16,64,> 256,> 256,"C=C[C@]1(C)C[C@@H](OC(=O)COC(=O)/C=C/c2cccc(F)c2)[C@]2(C)[C@H](C)CC[C@]3(CCC(=O)[C@H]32)[C@@H](C)[C@@H]1O [Compound 8, (E)-2-(((3aR,4R,5R,8S,9R,12R)-8-hydroxy-4,7,9,12-tetramethyl-3-oxo-7-vinyldecahydro-4,9a-propanocyclopenta[8]annulen-5-yl)oxy)-2-oxoethyl 3-(3-fluorophenyl)acrylate]",–,–,–,–,–,–,–,–
32,32,16,128,256,256,"C=C[C@]1(C)C[C@@H](OC(=O)COC(=O)/C=C/c2ccc3ccccc3c2)[C@]2(C)[C@H](C)CC[C@]3(CCC(=O)[C@H]32)[C@@H](C)[C@@H]1O [Compound 18, (E)-2-(((3aR,4R,5R,7S,8S,9R,9aS,12R)-8-hydroxy-4,7,9,12-tetramethyl-3-oxo-7-vinyldecahydro-4,9a-propanocyclopenta[8]annulen-5-yl)oxy)-2-oxoethyl 3-(naphthalen-2-yl)acrylate]",–,–,–,–,–,–,–,–

# The next lines start with the molecule.
SMILES,"MIC [1, 7] [µg/mL]","MIC [2, 8] [µg/mL]","MIC [3, 9] [µg/mL]","MIC [4, 10] [µg/mL]","MIC [5, 11] [µg/mL]","MIC [6, 12] [µg/mL]","inhibitory effect compared with the three tested positive controls ([1]; methicillin-sensitive Staphylococcus epidermidis, statement in words from Table 1)","inhibition compared with tiamulin ([6]; Acinetobacter baumannii, statement in words from Table 1)","MIC ([1]; Staphylococcus epidermidis, ATCC12228, read-out: Minimum inhibitory concentration) [µg/mL]","MIC ([2]; Staphylococcus aureus, ATCC29213, read-out: Minimum inhibitory concentration) [µg/mL]","MIC ([3]; Staphylococcus aureus, ATCC25923, read-out: Minimum inhibitory concentration) [µg/mL]","MIC ([4]; Staphylococcus aureus, ATCC33591, read-out: Minimum inhibitory concentration) [µg/mL]","MIC ([5]; Escherichia coli, ATCC25922, read-out: Minimum inhibitory concentration) [µg/mL]","MIC ([6]; Acinetobacter baumannii, ATCC19606, read-out: Minimum inhibitory concentration) [µg/mL]"
"C=C[C@]1(C)C[C@@H](OC(=O)COC(=O)/C=C/c2ccc(C(F)(F)F)cc2)[C@]2(C)[C@H](C)CC[C@]3(CCC(=O)[C@H]32)[C@@H](C)[C@@H]1O [Compound 15, (E)-2-(((3aR,4R,5R,8S,9R,12R)-8-hydroxy-4,7,9,12-tetramethyl-3-oxo-7-vinyldecahydro-4,9a-propanocyclopenta[8]annulen-5-yl)oxy)-2-oxoethyl 3-(4-(trifluoromethyl)phenyl)acrylate]",8,16,16,128,64,> 256,better than that of the positive controls,–,–,–,–,–,–,–
"C=C[C@]1(C)C[C@@H](OC(=O)COC(=O)/C=C/c2ccc(C#N)cc2)[C@]2(C)[C@H](C)CC[C@]3(CCC(=O)[C@H]32)[C@@H](C)[C@@H]1O [Compound 6, (E)-2-(((3aR,4R,5R,8S,9R,12R)-8-hydroxy-4,7,9,12-tetramethyl-3-oxo-7-vinyldecahydro-4,9a-propanocyclopenta[8]annulen-5-yl)oxy)-2-oxoethyl 3-(4-cyanophenyl)acrylate]",–,–,–,–,–,–,–,–,64,64,32,64,> 256,> 256
"C=C[C@]1(C)C[C@@H](OC(=O)COC(=O)/C=C/c2ccc(F)c(Cl)c2)[C@]2(C)[C@H](C)CC[C@]3(CCC(=O)[C@H]32)[C@@H](C)[C@@H]1O [Compound 20, (E)-2-(((3aR,4R,5R,8S,9R,12R)-8-hydroxy-4,7,9,12-tetramethyl-3-oxo-7-vinyldecahydro-4,9a-propanocyclopenta[8]annulen-5-yl)oxy)-2-oxoethyl 3-(3-chloro-4-fluorophenyl)acrylate]",32,32,16,64,64,> 256,–,–,–,–,–,–,–,–
"C=C[C@]1(C)C[C@@H](OC(=O)COC(=O)/C=C/c2ccc(OC)c(OC)c2)[C@]2(C)[C@H](C)CC[C@]3(CCC(=O)[C@H]32)[C@@H](C)[C@@H]1O [Compound 7, (E)-2-(((3aR,4R,5R,8S,9R,12R)-8-hydroxy-4,7,9,12-tetramethyl-3-oxo-7-vinyldecahydro-4,9a-propanocyclopenta[8]annulen-5-yl)oxy)-2-oxoethyl 3-(3,4-dimethoxyphenyl)acrylate]",16,8,4,32,64,> 256,–,–,–,–,–,–,–,–
"C=C[C@]1(C)C[C@@H](OC(=O)COC(=O)/C=C/c2ccc(F)c(F)c2F)[C@]2(C)[C@H](C)CC[C@]3(CCC(=O)[C@H]32)[C@@H](C)[C@@H]1O [Compound 12, (E)-2-(((3aR,4R,5R,8S,9R,12R)-8-hydroxy-4,7,9,12-tetramethyl-3-oxo-7-vinyldecahydro-4,9a-propanocyclopenta[8]annulen-5-yl)oxy)-2-oxoethyl 3-(2,3,4-trifluorophenyl)acrylate]",16,64,32,128,64,128,–,–,–,–,–,–,–,–
"C=C[C@]1(C)C[C@@H](OC(=O)COC(=O)/C=C/c2cccc(C(F)(F)F)c2)[C@]2(C)[C@H](C)CC[C@]3(CCC(=O)[C@H]32)[C@@H](C)[C@@H]1O [Compound 16, (E)-2-(((3aR,4R,5R,8S,9R,12R)-8-hydroxy-4,7,9,12-tetramethyl-3-oxo-7-vinyldecahydro-4,9a-propanocyclopenta[8]annulen-5-yl)oxy)-2-oxoethyl 3-(3-(trifluoromethyl)phenyl)acrylate]",64,64,32,256,64,128,–,–,–,–,–,–,–,–
C=C[C@]1(C)C[C@@H](OC(=O)COC(=O)/C=C/c2ccccc2C(F)(F)F)[C@]2(C)[C@H](C)CC[C@]3(CCC(=O)[C@H]32)[C@@H](C)[C@@H]1O [Compound 21],64,64,32,128,> 256,> 256,–,–,–,–,–,–,–,–
C=C[C@]1(C)C[C@@H](OC(=O)COC(=O)/C=C/c2ccc(Cn3ccnc3)cc2)[C@]2(C)[C@H](C)CC[C@]3(CCC(=O)[C@H]32)[C@@H](C)[C@@H]1O [Compound 17],16,16,8,32,64,128,–,–,–,–,–,–,–,–
